In assay [1] the target is T1, composite Cel-L-AChR with Ode-ACR-8 (29/38/63/L1 + Ode-ACR-8).
T1 construct: mixed-species complex of whole subunits; cRNA in Xenopus laevis oocytes with C. elegans RIC-3, UNC-50, UNC-74; LEV-8 replaced by O. dentatum ACR-8
In words: two-electrode voltage clamp, Xenopus oocytes. The assay is classed as cell-based, Caenorhabditis elegans; Oesophagostomum dentatum. Conditions: read-out: Lev EC50; full agonist; responses normalized to 100 μM ACh.

The test system of assay [2] is composite Cel-L-AChR with Hco-UNC-38 (29/63/L1/L8 + Hco-UNC-38). Also noted: species or system Xenopus laevis oocytes. Conditions: Imax as % of 100 uM ACh response; agonist.
The target in assay [3] is T2, composite Cel-L-AChR with Hco-UNC-63 (29/38/L1/L8 + Hco-UNC-63).
T2 construct: mixed-species complex of whole subunits; cRNA in Xenopus laevis oocytes with ancillary RIC-3, UNC-50, UNC-74; Cel-UNC-63 replaced by H. contortus UNC-63
T2 sequence (D6MYF4 22-504): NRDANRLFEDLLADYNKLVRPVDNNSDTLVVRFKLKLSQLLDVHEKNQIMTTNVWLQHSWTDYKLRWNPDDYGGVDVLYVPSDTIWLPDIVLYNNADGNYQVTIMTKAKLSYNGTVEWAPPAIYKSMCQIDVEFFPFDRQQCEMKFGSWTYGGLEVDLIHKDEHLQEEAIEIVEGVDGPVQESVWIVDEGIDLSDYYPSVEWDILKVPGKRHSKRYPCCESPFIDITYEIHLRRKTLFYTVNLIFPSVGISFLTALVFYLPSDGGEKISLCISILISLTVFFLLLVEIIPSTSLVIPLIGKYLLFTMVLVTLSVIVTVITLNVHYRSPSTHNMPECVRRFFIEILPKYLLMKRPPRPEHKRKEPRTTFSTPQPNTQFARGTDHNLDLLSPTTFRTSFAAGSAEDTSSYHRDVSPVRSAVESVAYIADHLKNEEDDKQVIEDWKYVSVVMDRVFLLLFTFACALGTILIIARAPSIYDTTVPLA
T2 sequence (Q23022 17-511, further chain): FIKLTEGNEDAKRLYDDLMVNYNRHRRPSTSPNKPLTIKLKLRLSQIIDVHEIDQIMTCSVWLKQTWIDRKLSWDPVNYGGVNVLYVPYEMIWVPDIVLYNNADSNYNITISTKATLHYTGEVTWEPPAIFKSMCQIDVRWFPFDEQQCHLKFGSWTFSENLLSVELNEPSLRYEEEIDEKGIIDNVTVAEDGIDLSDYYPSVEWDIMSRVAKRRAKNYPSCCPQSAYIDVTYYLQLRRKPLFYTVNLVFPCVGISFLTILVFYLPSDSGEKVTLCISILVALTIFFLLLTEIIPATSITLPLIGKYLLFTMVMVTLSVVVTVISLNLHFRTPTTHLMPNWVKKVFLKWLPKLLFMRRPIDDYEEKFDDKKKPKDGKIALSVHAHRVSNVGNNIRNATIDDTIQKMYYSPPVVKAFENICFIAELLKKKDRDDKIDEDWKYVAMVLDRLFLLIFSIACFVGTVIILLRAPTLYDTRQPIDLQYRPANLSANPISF
T2 sequence (P48181 27-493, further chain): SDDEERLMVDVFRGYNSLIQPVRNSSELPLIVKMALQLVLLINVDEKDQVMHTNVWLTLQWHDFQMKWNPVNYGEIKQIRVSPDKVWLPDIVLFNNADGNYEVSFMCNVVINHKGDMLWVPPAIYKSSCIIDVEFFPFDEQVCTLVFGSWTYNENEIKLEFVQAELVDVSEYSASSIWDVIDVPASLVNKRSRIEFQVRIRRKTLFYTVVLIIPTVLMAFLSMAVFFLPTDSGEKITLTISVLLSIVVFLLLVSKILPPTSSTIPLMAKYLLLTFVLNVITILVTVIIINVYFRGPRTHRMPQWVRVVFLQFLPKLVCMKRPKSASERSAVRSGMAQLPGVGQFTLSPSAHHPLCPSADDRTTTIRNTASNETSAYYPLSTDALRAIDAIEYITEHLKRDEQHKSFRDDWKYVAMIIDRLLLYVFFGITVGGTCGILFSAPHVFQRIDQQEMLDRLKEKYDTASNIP
T2 sequence (Q27218 32-507, further chain): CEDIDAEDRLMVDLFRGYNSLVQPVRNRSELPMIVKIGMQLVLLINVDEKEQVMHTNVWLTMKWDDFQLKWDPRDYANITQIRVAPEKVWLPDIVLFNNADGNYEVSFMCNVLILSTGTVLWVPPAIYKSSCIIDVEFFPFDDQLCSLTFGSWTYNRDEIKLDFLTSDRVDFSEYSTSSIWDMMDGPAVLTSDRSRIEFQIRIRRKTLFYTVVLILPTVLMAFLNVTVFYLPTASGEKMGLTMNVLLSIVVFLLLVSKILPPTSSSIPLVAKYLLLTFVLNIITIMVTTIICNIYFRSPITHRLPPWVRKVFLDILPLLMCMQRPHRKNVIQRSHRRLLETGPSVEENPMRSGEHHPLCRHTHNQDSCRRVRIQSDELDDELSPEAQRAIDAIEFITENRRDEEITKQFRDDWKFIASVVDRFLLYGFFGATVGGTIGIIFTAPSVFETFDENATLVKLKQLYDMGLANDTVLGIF
T2 sequence (Q93329 26-531, further chain): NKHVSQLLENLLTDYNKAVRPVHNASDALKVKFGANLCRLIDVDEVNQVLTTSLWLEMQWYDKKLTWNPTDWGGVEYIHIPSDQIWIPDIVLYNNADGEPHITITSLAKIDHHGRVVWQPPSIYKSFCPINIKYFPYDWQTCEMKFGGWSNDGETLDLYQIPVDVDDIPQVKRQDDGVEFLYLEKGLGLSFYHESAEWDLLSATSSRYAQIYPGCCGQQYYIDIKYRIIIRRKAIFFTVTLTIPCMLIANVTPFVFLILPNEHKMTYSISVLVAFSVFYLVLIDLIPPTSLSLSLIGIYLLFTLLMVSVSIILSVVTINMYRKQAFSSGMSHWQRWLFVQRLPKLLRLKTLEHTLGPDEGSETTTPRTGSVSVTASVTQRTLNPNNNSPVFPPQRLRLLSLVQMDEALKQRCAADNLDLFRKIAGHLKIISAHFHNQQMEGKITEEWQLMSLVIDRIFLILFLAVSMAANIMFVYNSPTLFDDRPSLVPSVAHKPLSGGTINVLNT
Description: two-electrode voltage clamp, Xenopus oocytes. To be noted: read-out: Lev EC50; agonist; responses normalized to 100 μM ACh. The assay is classed as cell-based, Caenorhabditis elegans; Haemonchus contortus. In general terms: Two-electrode voltage clamp is typically applied to oocytes expressing channels or transporters.

Assay [4] concerns the target T3, composite Cel-L-AChR with Min-ACR-8 (29/38/63/L1 + Min-ACR-8).
T3 construct: mixed-species complex of whole subunits; cRNA in Xenopus laevis oocytes with C. elegans RIC-3, UNC-50, UNC-74; LEV-8 replaced by M. incognita ACR-8
Description: two-electrode voltage clamp, Xenopus oocytes. It is filed as cell-based, Caenorhabditis elegans; Meloidogyne incognita. To be noted: agonist; responses normalized to 100 μM ACh; read-out: Lev EC50.

Assay [5] has as its target T4, composite Cel-L-AChR with Asu-ACR-8 (29/38/63/L1 + Asu-ACR-8).
T4 construct: mixed-species complex of whole subunits; cRNA in Xenopus laevis oocytes with C. elegans RIC-3, UNC-50, UNC-74; LEV-8 replaced by A. suum ACR-8
Description: two-electrode voltage clamp, Xenopus oocytes. The assay is classed as cell-based, Caenorhabditis elegans; Ascaris suum. Conditions: read-out: Lev EC50; agonist; responses normalized to 100 μM ACh.

Assay [6] deals with composite Cel-L-AChR with Ode-ACR-8 (29/38/63/L1 + Ode-ACR-8). Also noted: species or system Xenopus laevis oocytes. Conditions: Imax as % of 100 uM ACh response; agonist.
Assay [7] relates to T4, composite Cel-L-AChR with Asu-ACR-8 (29/38/63/L1 + Asu-ACR-8). Also on record: species or system Xenopus laevis oocytes; Agonist-evoked currents in cRNA-injected oocytes, concentration-response normalized to 100 uM ACh. To be noted: Imax as % of 100 uM ACh response; agonist. The source says:
(§1) The C. elegans L-AChR can be robustly expressed in Xenopus oocytes by co-expressing cRNAs from the five L-AChR subunits (UNC-38, UNC-63, UNC-29, LEV-1 and LEV-8) in combination with cRNA encoding three ancillary proteins (UNC-74, UNC-50 and RIC-3). Noticeably, the absence of any one of these AChR subunits or ancillary proteins from the injected cRNA mix leads to the loss of expression of functional receptor highlighting their major individual requirement. Taking advantage of this, we complemented the Cel-L-AChR by replacing the Cel-LEV-8 by ACR-8 subunits from distinct parasitic nematode species. As a preliminary set of experiments, cRNAs encoding ACR-8 from parasitic nematodes were micro-injected with the three ancillary proteins in order to test their ability to form a homomeric channel. […] Therefore, cRNAs encoding Cel-UNC-38, Cel-UNC-63, Cel-UNC-29, Cel-LEV-1, Cel-UNC-74, Cel-UNC-50 and Cel-RIC-3 in combination with either Hco-ACR-8 / Ode-ACR-8 / Asu-ACR-8 / Dim-ACR-8 / Min-ACR-8 were co-injected into Xenopus oocytes. Three days after injection, each of these combinations produced robust responses to 100μM ACh in oocytes (S3 Fig). Similarly, application of 100μM levamisole (Lev) elicited a response for all complemented Cel-L-AChRs. Dose response curves were generated for both ACh and Lev in complemented L-AChRs containing ACR-8 subunits from parasitic species (Fig 2 and Table 1). In comparison to the C. elegans L-AChR, we observed a drastic reduction of the ACh EC50 values in the composite L-AChRs complemented with Hco-ACR-8, Ode-ACR-8, Asu-ACR-8 and Dim-ACR-8. […] A. Representation of the putative arrangement of the C. elegans L-AChR subunits expressed in Xenopus oocytes and dose-response relationships for ACh (red triangle, n = 8) and Lev (white circle, n = 8). B-F. Representation of the putative subunit arrangement of the composite C. elegans L-AChRs including Cel-UNC-29, Cel-UNC-38, Cel-UNC-63, Cel-LEV-1 and the ACR-8 subunit from a parasitic nematode species: H. contortus ACR-8 (B), O. dentatum ACR-8 (C), A. suum ACR-8 (D), D. immitis ACR-8 (E) and M. incognita ACR-8 (F). Dose-response relationships for ACh and Lev are indicated by red triangles (n = 5–11) and white circles (n = 4–9), respectively. G-H. Representation of the putative subunit arrangement of the composite C. elegans L-AChRs with Hco-UNC-38 replacing Cel-UNC-38 (G) or Hco-UNC-63 replacing Cel-UNC-63 (H). Dose-response relationships for ACh and Lev are indicated by red triangles (n = 7–10) and white circles (n = 7–9), respectively. All responses are normalized to 100μM ACh. Results are shown as the mean ± se. […]

Assay [8] concerns T3, composite Cel-L-AChR with Min-ACR-8 (29/38/63/L1 + Min-ACR-8). Also noted: species or system Xenopus laevis oocytes; Agonist-evoked currents in cRNA-injected oocytes, concentration-response normalized to 100 uM ACh. To be noted: Imax as % of 100 uM ACh response; agonist.
T3 sequence (A0A2I6TEK4 19-527): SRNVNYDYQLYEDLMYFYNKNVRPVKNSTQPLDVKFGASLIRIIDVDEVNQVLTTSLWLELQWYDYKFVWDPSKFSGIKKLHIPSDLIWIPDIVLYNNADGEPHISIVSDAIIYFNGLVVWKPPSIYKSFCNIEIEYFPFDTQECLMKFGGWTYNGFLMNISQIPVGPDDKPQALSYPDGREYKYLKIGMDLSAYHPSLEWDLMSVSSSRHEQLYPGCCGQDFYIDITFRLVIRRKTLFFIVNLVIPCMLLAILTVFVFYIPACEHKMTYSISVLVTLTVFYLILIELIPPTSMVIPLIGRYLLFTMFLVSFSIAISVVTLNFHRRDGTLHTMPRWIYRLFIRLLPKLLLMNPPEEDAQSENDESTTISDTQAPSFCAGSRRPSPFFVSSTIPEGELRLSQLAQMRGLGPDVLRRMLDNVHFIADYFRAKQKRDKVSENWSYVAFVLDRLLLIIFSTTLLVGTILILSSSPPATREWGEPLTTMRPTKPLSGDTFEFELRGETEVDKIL
T3 sequence (Q23022 17-511, further chain): as the sequence (Q23022 17-511, further chain) above
T3 sequence (Q9N587 24-502, further chain): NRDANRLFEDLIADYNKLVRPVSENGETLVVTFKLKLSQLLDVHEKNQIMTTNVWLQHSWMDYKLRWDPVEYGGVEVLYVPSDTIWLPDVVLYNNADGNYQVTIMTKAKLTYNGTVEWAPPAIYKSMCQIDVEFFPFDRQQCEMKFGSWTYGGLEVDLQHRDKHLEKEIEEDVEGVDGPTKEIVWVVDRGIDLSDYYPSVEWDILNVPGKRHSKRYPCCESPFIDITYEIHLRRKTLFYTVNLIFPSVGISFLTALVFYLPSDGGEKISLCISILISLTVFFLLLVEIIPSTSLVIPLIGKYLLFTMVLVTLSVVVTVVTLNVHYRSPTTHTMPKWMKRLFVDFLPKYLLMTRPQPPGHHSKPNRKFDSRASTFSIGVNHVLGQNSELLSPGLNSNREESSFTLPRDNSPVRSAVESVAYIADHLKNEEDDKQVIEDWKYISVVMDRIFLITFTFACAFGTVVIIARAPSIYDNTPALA
T3 sequence (P48181 27-493, further chain): as the sequence (P48181 27-493, further chain) above
T3 sequence (Q27218 32-507, further chain): as the sequence (Q27218 32-507, further chain) above
From the text: as §1

Assay [9] has as its system T2, composite Cel-L-AChR with Hco-UNC-63 (29/38/L1/L8 + Hco-UNC-63). Also on record: species or system Xenopus laevis oocytes; Agonist-evoked currents in cRNA-injected oocytes, concentration-response normalized to 100 uM ACh. Conditions: Imax as % of 100 uM ACh response; agonist.
From the text: as §1

Assay [10] relates to T5, Cel-L-AChR (29/38/63/L1 + Cel-LEV-8).
T5 construct: gene unc-38; full-length subunits from cRNA in Xenopus laevis oocytes with ancillary C. elegans RIC-3, UNC-50, UNC-74; heteropentamer
T5 sequence (Q23022 17-511): as the sequence (Q23022 17-511, further chain) above
T5 sequence (Q9N587 24-502, further chain): as the sequence (Q9N587 24-502, further chain) above
T5 sequence (P48181 27-493, further chain): as the sequence (P48181 27-493, further chain) above
T5 sequence (Q27218 32-507, further chain): as the sequence (Q27218 32-507, further chain) above
T5 sequence (Q93329 26-531, further chain): as the sequence (Q93329 26-531, further chain) above
Also noted: species or system Xenopus laevis oocytes; Agonist-evoked currents in cRNA-injected oocytes, concentration-response normalized to 100 uM ACh. To be noted: Imax as % of 100 uM ACh response; agonist.
From the text: as §1

Assay [11] addresses T6, composite Cel-L-AChR with Hco-ACR-8 (29/38/63/L1 + Hco-ACR-8).
T6 construct: mixed-species complex of whole subunits; cRNA in Xenopus laevis oocytes with C. elegans RIC-3, UNC-50, UNC-74; LEV-8 replaced by H. contortus ACR-8
In words: two-electrode voltage clamp, Xenopus oocytes. Conditions: read-out: Lev EC50; full agonist; responses normalized to 100 μM ACh. The assay is classed as cell-based, Caenorhabditis elegans; Haemonchus contortus.

Assay [12] concerns the target T7, composite Cel-L-AChR with Hco-UNC-38 (29/63/L1/L8 + Hco-UNC-38).
T7 construct: mixed-species complex of whole subunits; cRNA in Xenopus laevis oocytes with ancillary RIC-3, UNC-50, UNC-74; Cel-UNC-38 replaced by H. contortus UNC-38
Description: two-electrode voltage clamp, Xenopus oocytes. The assay is classed as cell-based, Caenorhabditis elegans; Haemonchus contortus. Conditions: read-out: Lev EC50; agonist; responses normalized to 100 μM ACh.

Assay [13] has as its target T5, Cel-L-AChR (29/38/63/L1 + Cel-LEV-8). Description: two-electrode voltage clamp, Xenopus oocytes. The assay is classed as cell-based, Caenorhabditis elegans. To be noted: partial agonist; responses normalized to 100 μM ACh.
Assay [14] has as its system composite Cel-L-AChR with Hco-ACR-8 (29/38/63/L1 + Hco-ACR-8). Also noted: species or system Xenopus laevis oocytes. To be noted: Imax as % of 100 uM ACh response; agonist.

As a reminder, the EC50 is the concentration at which the effect is half-maximal.

T4 sequence (A0A2I6TEN1 25-521): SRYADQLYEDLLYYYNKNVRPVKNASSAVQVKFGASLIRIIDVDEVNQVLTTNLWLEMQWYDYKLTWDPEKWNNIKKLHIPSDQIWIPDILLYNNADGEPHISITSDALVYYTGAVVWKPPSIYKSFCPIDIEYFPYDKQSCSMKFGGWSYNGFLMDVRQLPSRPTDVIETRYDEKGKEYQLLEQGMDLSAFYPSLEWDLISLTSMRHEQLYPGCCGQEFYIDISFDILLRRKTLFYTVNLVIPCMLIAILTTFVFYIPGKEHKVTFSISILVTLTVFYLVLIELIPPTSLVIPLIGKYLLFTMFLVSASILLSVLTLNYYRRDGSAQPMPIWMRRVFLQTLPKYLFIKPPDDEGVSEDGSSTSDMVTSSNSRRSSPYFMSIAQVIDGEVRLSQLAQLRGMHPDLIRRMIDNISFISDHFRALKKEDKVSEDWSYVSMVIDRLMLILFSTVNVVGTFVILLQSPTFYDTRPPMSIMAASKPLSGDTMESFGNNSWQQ
T4 sequence (Q23022 17-511, further chain): as the sequence (Q23022 17-511, further chain) above
T4 sequence (Q9N587 24-502, further chain): as the sequence (Q9N587 24-502, further chain) above
T4 sequence (P48181 27-493, further chain): as the sequence (P48181 27-493, further chain) above
T4 sequence (Q27218 32-507, further chain): as the sequence (Q27218 32-507, further chain) above

Regarding `c1ccc([C@H]2CN3CCSC3=N2)cc1` [levamisole], the concentration for a half-maximal effect (EC50) in assay [1] amounted to 11.7 ± 1.3 µM; in [3] it was 12.1 ± 1.2 µM; in [4], 10.1 ± 1.1 µM; in assay [5], 5.8 ± 1.2 µM; in assay [11] it was 2.7 ± 1.4 µM; in assay [12], 13.5 ± 1.5 µM. Also, the half-maximal effective concentration (EC50) in [13] amounted to 6.4 ± 1.2 µM. In addition, the “Lev Imax” value in assay [2] amounted to 51.1 ±4.5%; in assay [6], 112.4 ±19.0%; in assay [7], 51.6 ±7.0%; in [8], 33.9 ±13.9%; in assay [9], 55.9 ±9.4%; in [10], 49.1±10.2%. In addition, the “Lev Imax” value in assay [14] stood at 109.5 ±20.7%.

For the origin of these results see PMC5931475, “Deciphering the molecular determinants of cholinergic anthelmintic sensitivity in nematodes: When novel functional validation approaches highlight major differences between the model Caenorhabditis elegans and parasitic species” (PLoS Pathogens, 2018).
